Data reported in patent US20100029615A1, “BENZIMIDAZOLE DERIVATIVES” (priority 2006, published 2010).
Where a name gives a salt, the structure may show the parent alone.

biological target: T1, SMO (Mus musculus, UniProt P56726); test: Smoothened (SMO)/Sonic Hedgehog (SHh) Transient Transcriptional Activation Assay (Gli-luciferase reporter in C3H10T1/2 cells); type: cell-based, murine; details: C3H 10T1/2, 2 uM test compound, SHh 250 ng/ml, 20 hrs, read-out: SMO % inhibition at 2 uM
T1 construct: endogenous in cells; host or cells: C3H10T1/2 (ATCC #CCL-226)
Procedure: As noted above, the compounds of the invention are useful as inhibitors of SMO. Methods for determining the in vitro activity of these compounds are described below: Smoothened (SMO)/Sonic Hedgehog (SHh) Transient Transcriptional Activation Assay
On Day 1,2×10^6 C3H10T1/2 cells (ATCC #CCL-226) were split and seeded in 12 mls of growth medium Basal Medium Eagle (BME, Invitrogen #21010-046) supplemented with 2 mM L-glutamine (Invitrogen #25030-081), 0.1 units/ml penicillin and 0.1 ug/ml streptomycin (Invitrogen #15140-122), and 10% Fetal Bovine Serum (FBS, Invitrogen #16140-071) in a T-75 flask (Costar #3376). They were allowed to attach for 4 hours at 37° C., 5% CO2. The cells were then transfected using Fugene 6 (Roch #11 814 443 001) in the following reaction: 48 ul Fugene 6 and 745 ul Opti-MEM (Invitrogen #31985-070) were mixed and allowed to sit at room temperature for 5 minutes. 8 ug of pGL4.14/mGli(CS) DNA (10× murine Gli response elements and minimal CS promoter) and 0.5 ug of pEGFP DNA (Clontech) were added, gently mixed and incubated at room temperature for 20 minutes. This entire transfection mix was then added to the T-75 flask containing the cells. The cells were incubated at 37 °C, 5% C02 for 18-24 hrs.
On Day 2, the transfected cells were trypsinized and seeded into white 96 well plates (Costar #3917) in 100ul/well of growth medium at a concentration of 20,000 cells/well. The cells were allowed to recover for 4 hrs before adding serum starvation medium Dulbecco's Modified Eagle Medium (DMEM, Invitrogen #21063-029) supplemented with 2 mM L-glutamine, 0.1 units/ml penicillin and 0.1 ug/ml streptomycin, and 0.5% Calf Serum (CS, Invitrogen #26170-043). The growth media was aspirated off, and the cells were rinsed with 100 ul of starvation media. 95 ul of starvation media was then added to each well. The cells were incubated for 20 hrs at 37 °C, 5% C02.
On Day 3, cells were dosed with test compounds at a final concentration ranging from 2 uM to 2 nM. Immediately after dosing cells with compounds, recombinant human sonic hedgehog (SHh, R&D Systems #1845-SH) was add to a final concentration of 250 ng/ml. A 25 ug vial of SHh was reconstituted with 250 ul PBS/0.1% BSA to give a 100 ng/ul working stock. This working stock was then diluted 1:20 in starvation media. The transfected cells were incubated with compounds and SHh for 20 hrs at 37 °C, 5% C02.
Luciferase assays were conducted on Day 4 using Dual-Glo Luciferase assay system (Promega #E2940) according to Promega's protocol. Briefly, Dual-Glo luciferase reagent was made up and 100 uls were added to each well of the 96 well plate containing media. Plates were shaken at room temperature for 10 minutes, and then read on TopCount (Perkin-Elmer). The luminescence was recorded.

T1 sequence (P56726 33-793): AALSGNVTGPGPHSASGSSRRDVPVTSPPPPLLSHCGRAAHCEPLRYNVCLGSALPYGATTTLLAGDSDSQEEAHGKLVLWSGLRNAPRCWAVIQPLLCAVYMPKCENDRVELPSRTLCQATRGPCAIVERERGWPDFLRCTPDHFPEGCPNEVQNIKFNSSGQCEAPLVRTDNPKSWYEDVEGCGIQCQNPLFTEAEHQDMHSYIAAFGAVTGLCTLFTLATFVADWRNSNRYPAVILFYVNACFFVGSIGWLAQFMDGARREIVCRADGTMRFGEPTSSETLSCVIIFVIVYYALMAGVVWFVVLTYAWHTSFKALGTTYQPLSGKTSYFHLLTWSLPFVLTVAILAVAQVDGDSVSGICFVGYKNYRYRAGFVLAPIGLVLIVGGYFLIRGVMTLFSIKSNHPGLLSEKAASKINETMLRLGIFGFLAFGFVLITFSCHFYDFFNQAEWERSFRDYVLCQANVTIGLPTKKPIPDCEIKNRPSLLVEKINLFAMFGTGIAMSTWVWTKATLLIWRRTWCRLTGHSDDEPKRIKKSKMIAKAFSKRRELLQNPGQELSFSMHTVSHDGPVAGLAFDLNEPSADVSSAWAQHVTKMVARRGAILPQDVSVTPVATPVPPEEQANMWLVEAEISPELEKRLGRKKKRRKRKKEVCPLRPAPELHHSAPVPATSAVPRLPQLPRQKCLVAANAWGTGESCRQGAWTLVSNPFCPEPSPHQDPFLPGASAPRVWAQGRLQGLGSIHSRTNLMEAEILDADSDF

| Structure (SMILES) | inhibition at 2 µM [%] |
| --- | --- |
| COCCNCc1ccc2nc([C@H]3CCC[C@@H](NC(=O)c4ccc5c(c4)OCCO5)C3)[nH]c2c1 [Example 43] | 99 |
| CN1C(=O)COc2ccc(C(=O)N[C@@H]3CCC[C@H](c4nc5ccccc5[nH]4)C3)cc21 [Example 45, N-((1R,3S)-3-(1H-Benzo[d]midazol-2-yl)cyclohexyl)-4-methyl-3-oxo-3,4-dihydro-2H-benzo[b][1,4]oxazine-6-carboxamide] | 108 |
| O=C(Nc1ccc(C(F)(F)F)cc1)N[C@@H]1CCC[C@H](c2nc3ccccc3[nH]2)C1 [Example 47, 1-((1R,3S)-3-(1H-Benzo[d]imidazol-2-yl)cyclohexyl]-3-(4-(trifluoromethyl)phenyl)urea] | 108 |

Further lines, results first:

| inhibition at 2 µM [%] | Structure (SMILES) |
| --- | --- |
| 107 | CN(C)Cc1ccc2nc([C@H]3CCC[C@@H](NC(=O)c4ccc5c(c4)OCCO5)C3)[nH]c2c1 [Example 44, N-((1R,3S)-3-(5-((Dimethylamino)methyl)-1H-benzo[d]imidazol-2-yl)cyclohexyl)-2,3-dihydrobenzo[b][1,4]dioxine-6-carboxamide] |
| 108 | O=C(Cc1nc2ccc(Cl)cc2[nH]1)NC1CCCC(c2nc3ccccc3[nH]2)C1 (stereo not shown) [Example 46, N-(3-(1H-Benzo[d]imidazol-2-yl)cyclohexyl)-2-(6-chloro-1H-benzo[d]imidazol-2-yl)acetamide] |

same assay, conditions: C3H 10T1/2, 2 μM test compound, SHh 250 ng/ml, 20 hrs, read-out: SMO CELL % INHIBITION @ 2 μM

| Structure (SMILES) | inhibition at 2 µM [%] |
| --- | --- |
| COc1cc(OC)cc(C(=O)NC2CCCC(c3nc4ccccc4[nH]3)C2)c1 (stereo not shown) [Example 52, N-[3-(1H-benzimidazol-2-yl)cyclohexyl]-3,5-dimethoxybenz-amide HCl] | 105 |
| O=C(NC1CCCC(c2nc3ccccc3[nH]2)C1)c1cccnc1 (stereo not shown) [Example 53, N-[3-(1H-benzimidazol-2-yl)cyclohexyl]-nicotinamide HCl] | 96 |
| O=C(NC1CCCC(c2nc3ccccc3[nH]2)C1)c1ccc2c(c1)OCO2 (stereo not shown) [Example 58, N-[3-(1H-benzimidazol-2-yl)cyclohexyl]-1,3-benzodioxole-5-carboxamide HCl] | 82 |
| O=C(NC1CCCC(c2nc3ccccc3[nH]2)C1)c1ccc2[nH]cnc2c1 (stereo not shown) [Example 60, N-[3-(1H-benzimidazol-2-yl)cyclohexyl]-1H-benzimidazole-5-carboxamide HCl] | 87 |
| O=C(N[C@@H]1CCC[C@H](c2nc3ccccc3[nH]2)C1)c1ccc2c(c1)OCCO2 [Example 63, N-[(1R,3S)-3-(1H-benzimidazol-2-yl)cyclohexyl]-2,3-dihydro-1,4-benzodioxine-6-carboxamide HCl] | 108 |
| O=C(N[C@@H]1CCC[C@H](c2nc3ccccc3[nH]2)C1)c1ccc2c(c1)OCCO2 [Example 64, N-[(1R,3S)-3-(1H-benzimidazol-2-yl)cyclohexyl]-2,3-dihydro-1,4-benzodioxine-6-carboxamide triflouroacetate] | 108 |
| O=C(N[C@@H]1CCC[C@@H](c2nc3ccccc3[nH]2)C1)c1ccc2c(c1)OCCO2 [Example 65, N-[(1R,3R)-3-(1H-benzimidazol-2-yl)cyclohexyl]-2,3-dihydro-1,4-benzodioxine-6-carboxamide HCl] | 96 |
| COc1cc(OC)cc(C(=O)NC2CCCC(c3nc4ccc(C#N)cc4[nH]3)C2)c1 (stereo not shown) [Example 68, N-[3-(6-cyano-1H-benzimidazol-2-yl)cyclohexyl]-3,5-dimethoxybenz-amide] | 89 |
| O=C(N[C@H]1CCC[C@@H](c2nc3ccccc3[nH]2)C1)c1ccc2c(c1)OCCO2 [Example 72, N-((1S,3R)-3-(1H-benzo[d]imidazol-2-yl)cyclohexyl)-2,3-dihydrobenzo[b] [1,4]dioxine-6-carboxamide HCl] | 96 |
| COc1cc(OC)cc(C(=O)NC2CCCC(c3nc4cc(C(F)(F)F)ccc4[nH]3)C2)c1 (stereo not shown) [Example 74, 3,5-dimethoxy-N-{3-[6-(trifluoromethyl)-1H-benzimidazol-2-yl)cyclohexyl}-benzamide HCl] | 105 |
| S=C(N[C@@H]1CCC[C@H](c2nc3ccccc3[nH]2)C1)c1ccc2c(c1)OCCO2 [Example 75, N-((1R,3S)-3-(1H-benzo[d]imidazol-2-yl)cyclohexyl)-2,3-dihydrobenzo[b] [1,4]dioxine-6-carbothioamide HCl] | 104 |
| CN(C)c1ccc2nc(C3CCCC(NC(=O)c4ccc5c(c4)OCCO5)C3)[nH]c2c1 (stereo not shown) [Example 77, N-{3-[6-(dimethylamino)-1H-benzimidazol-2-yl]cyclohexyl}-2,3-dihydro-1,4-benzodioxine-6-carboxamide HCl] | 102 |

Now from value to compound:

| inhibition at 2 µM [%] | Structure (SMILES) |
| --- | --- |
| 67 | O=C(CCC1CCCC1)NC1CCCC(c2nc3ccccc3[nH]2)C1 (stereo not shown) [Example 54, N-[3-(1H-benzimidazol-2-yl)cyclohexyl]-3-cyclopentylpro-panamide HCl] |
| 57 | CC(C)(C)C(=O)NC1CCCC(c2nc3ccccc3[nH]2)C1 (stereo not shown) [Example 55, N-[3-(1H-benzimidazol-2-yl)cyclohexyl]-2,2-dimethylpropan-amide HCl] |
| 51 | O=C(NC1CCCC(c2nc3ccccc3[nH]2)C1)c1ccco1 (stereo not shown) [Example 56, N-[3-(1H-benzimidazol-2-yl)cyclohexyl]-2-furamide HCl] |
| 48 | O=C(NC1CCCC(c2nc3ccccc3[nH]2)C1)C1CCCCC1 (stereo not shown) [Example 57, N-(3-(1H-benzo[d]imidazol-2-yl)cyclohexyl) cyclohexanecar-boxamide HCl] |
| 101 | COc1ccc(C(=O)NC2CCCC(c3nc4ccccc4[nH]3)C2)cc1Cl (stereo not shown) [Example 59, N-[3-(1H-benzimidazol-2-yl)cyclohexyl]-3-chloro-4-methoxybenz-amide HCl] |
| 52 | O=C(NC1CCCC(c2nc3ccccc3[nH]2)C1)c1ncc[nH]1 (stereo not shown) [Example 61, N-[3-(1H-benzimidazol-2-yl)cyclohexyl]-1H-imidazole-2-carboxamide HCl] |
| 72 | COc1ccc(C(=O)NC2CCCC(c3nc4ccccc4[nH]3)C2)cc1 (stereo not shown) [Example 62, N-[3-(1H-benzimidazol-2-yl)cyclohexyl]-4-methoxybenz-amide HCl] |
| 107 | Cn1c([C@H]2CCC[C@@H](NC(=O)c3ccc4c(c3)OCCO4)C2)nc2ccccc21 [Example 66, N-[(1R,3S)-3-(1-methyl-1H-benzimidazol-2-yl)cyclohexyl]-2,3-dihydro-1,4-benzodioxine-6-carboxamide HCl] |
| 105 | COc1cc(OC)cc(C(=O)NC2CCCC(c3nc4ccc(OC)cc4[nH]3)C2)c1 (stereo not shown) [Example 69, 3,5-dimethoxy-N-[3-(6-methoxy-1H-benzimidazol-2-yl)cyclohexyl] benzamide] |
| 83 | COc1cc(OC)cc(C(=O)NC2CCCC(c3nc4ccc(F)cc4[nH]3)C2)c1 (stereo not shown) [Example 70, N-[3-(6-fluoro-1H-benzimidazol-2-yl)cyclohexyl]-3,5-dimethoxybenz-amide] |
| 104 | Cn1c(C2CCCC(NC(=O)c3ccc4c(c3)OCCO4)C2)nc2cc(CN)ccc21 (stereo not shown) [Example 73, N-{3-[5-(aminomethyl)-1-methyl-1H-benzimidazol-2-yl]cyclohexyl}-2,3-dihydro-1,4-benzodioxine-6-carboxamide HCl] |
| 101 | COCCn1c([C@H]2CCC[C@@H](NC(=O)c3ccc4c(c3)OCCO4)C2)nc2ccccc21 [Example 76, N-{(1R,3S)-3-[1-(2-methoxyethyl)-1H-benzimidazol-2-yl]cyclohexyl}-2,3-dihydro-1,4-benzodioxine-6-carboxamide] |
| 100 | CC(C)(C)c1ccc2nc(C3CCCC(NC(=O)c4ccc5c(c4)OCCO5)C3)[nH]c2c1 (stereo not shown) [Example 78, N-[3-(6-tert-butyl-1H-benzimidazol-2-yl)cyclohexyl]-2,3-dihydro-1,4-benzodioxine-6-carboxamide HCl] |
| 102 | Cc1cccc2nc(C3CCCC(NC(=O)c4ccc5c(c4)OCCO5)C3)[nH]c12 (stereo not shown) [Example 79, N-[3-(7-methyl-1H-benzimidazol-2-yl)cyclohexyl]-2,3-dihydro-1,4-benzodioxine-6-carboxamide HCl] |
